Data as given in patent US9212387B2, “Method for detection of genes targeted by microRNA” (National University Corporation Okayama University, priority 2010, dated 2015).
{Biotin} = biotin label; {P} = phosphate

Assays:
[1] = test system: target candidate genes of let-7b (mRNA in cell extract); assay: Pull down of target gene mRNAs of let-7b with biotinylated miRNA, RT-PCR assay; format: binding, human; settings: wash 400 mM KCl; for E2F2, TUSC2 and SRSF8 in pulled down mRNA: Example 9; for E2F6 and SOCS4 in pulled down mRNA: Example 8
Description: In this example, in the detection method for target genes of miRNA of Example 1, target genes were detected through the use of let-7b as biotinylated miRNA. In accordance with the biotinylated miRNA of 1) of Example 1, biotinylated let-7b in which the sense strand had its 5′ end and 3′ end modified by phosphorylation and biotin, respectively, and the guide strand had only its 5′ end modified by phosphorylation and biotinylated miR-183 as a negative control were synthesized (FASMAC Co., Ltd.). A pull-down complex was obtained by the same technique as in Example 1 through the use of streptavidin beads (Streptavidin Mutein Matrix: Roche), and washed five times with a wash solution containing 400 mM KCl in the same manner as in Example 5. After that, RNA purification and cDNA synthesis were performed from the complex binding to the beads. The resulting cDNA was subjected to an RT-PCR assay with primers specific for the E2F6 and SOCS4-2 genes as target candidate genes of let-7b.
In this example, in the detection method for target genes of miRNA of Example 1, target genes were detected through the use of let-7b as biotinylated miRNA. In this example, the detection was performed by the same technique as in Example 8 except that biotinylated miR-29a was used as a negative control in place of biotinylated miR-183. Also in the case of the biotinylated miR-29a, one in which the sense strand had its 5′ end and 3′ end modified by phosphorylation and biotin, respectively, and the antisense strand had only its 5′ end modified by phosphorylation was produced (FASMAC Co., Ltd.). An RT-PCR assay was performed with primers specific for the PRDM2, E2F2, TUSC2, and SRSF8 genes as target candidate genes let-7b.

[2] = test system: target candidate genes of miR-19a (mRNA in cell extract); assay: Pull down of target gene mRNAs of miR-19a with biotinylated miRNA, RT-PCR assay; format: binding, human
Description: In this example, in the detection method for target genes of miRNA of Example 1, target genes were detected through the use of miR-19a as biotinylated miRNA. In accordance with the biotinylated miRNA of 1-1) of Example 1, biotinylated miR-19a in which the sense strand had its 5′ end and 3′ end modified by phosphorylation and biotin, respectively, and the antisense strand had only its 5′ end modified by phosphorylation was were synthesized (FASMAC Co., Ltd.). The synthesized biotinylated miR-19a (400 pmole) and biotin (B4501: Sigma, […]) as a negative control were subjected to the treatments of 1-2) and 1-3) of Example 1. A pull-down complex was obtained from the resulting complex by the same technique as in 1-4) through the use of streptavidin beads (Streptavidin Mutein Matrix: Roche), and washed five times with a wash solution containing 400 mM KCl in the same manner as in Example 5. After that, the precipitate was treated with a 5 mM biotin solution (containing 5 mM biotin and an RNase inhibitor in the wash solution containing 400 mM KCl) at 42° C. for 5 minutes, and centrifuged in the same manner, and the pull-down complex (biotinylated miR-19a) was liberated from the streptavidin beads. […]
In this example, target genes were detected through the use of miR-19a as biotinylated miRNA in the detection method for target genes of miRNA of Example 1. […]

[3] = test system: target gene mRNAs of miR-183 in HEK293 cell extract; assay: Pull down of target gene mRNAs of miR-183 with biotinylated miRNA from cell extract, RT-PCR assay; format: binding, human; settings: for target candidate genes of miR-183 (10 kinds) in pull-down complex: VIL2, PPP2CA, RREB1, BCL2L11, PDCD4, LATS2, RSU1, ING3, DNMT3A, BRMS1L, wash 400 mM KCl; for candidate genes whose mRNA was pulled down / RT-PCR bands: 14 kinds of target candidate genes of miR-183, HEK293 cell extract, streptavidin agarose beads
AGO2 protein = target: T1, AGO2 protein (Homo sapiens, UniProt Q9UKV8); assay: AGO2 protein in pull-down complex, Western blot; format: binding; settings: HEK293 cell extract; streptavidin agarose beads 1 hour
T1 construct: endogenous in cells; host or cells: HEK293 cell extract
T1 sequence (Q9UKV8 whole entry): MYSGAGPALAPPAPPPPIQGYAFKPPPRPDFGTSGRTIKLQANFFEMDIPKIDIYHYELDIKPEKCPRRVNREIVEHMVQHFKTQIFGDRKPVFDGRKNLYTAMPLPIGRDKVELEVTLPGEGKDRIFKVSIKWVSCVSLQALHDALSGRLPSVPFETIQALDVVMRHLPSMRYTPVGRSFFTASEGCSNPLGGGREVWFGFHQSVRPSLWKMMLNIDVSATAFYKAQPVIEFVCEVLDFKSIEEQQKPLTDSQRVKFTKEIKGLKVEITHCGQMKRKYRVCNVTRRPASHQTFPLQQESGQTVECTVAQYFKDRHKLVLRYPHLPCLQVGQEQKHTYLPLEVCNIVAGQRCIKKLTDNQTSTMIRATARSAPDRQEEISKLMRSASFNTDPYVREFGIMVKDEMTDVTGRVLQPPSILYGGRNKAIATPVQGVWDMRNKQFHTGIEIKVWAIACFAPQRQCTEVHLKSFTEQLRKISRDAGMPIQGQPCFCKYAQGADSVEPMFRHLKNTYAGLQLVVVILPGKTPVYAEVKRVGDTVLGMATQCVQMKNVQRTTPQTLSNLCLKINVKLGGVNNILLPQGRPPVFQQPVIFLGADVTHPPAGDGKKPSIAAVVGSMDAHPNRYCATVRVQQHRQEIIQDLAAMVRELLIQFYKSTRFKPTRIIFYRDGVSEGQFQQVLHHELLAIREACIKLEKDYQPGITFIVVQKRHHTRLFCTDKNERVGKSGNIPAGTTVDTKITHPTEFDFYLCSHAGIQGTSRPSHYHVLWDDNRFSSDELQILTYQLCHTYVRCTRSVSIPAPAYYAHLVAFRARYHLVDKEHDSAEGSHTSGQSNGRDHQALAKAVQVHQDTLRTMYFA
Experimental: Biotinylated miR-183 was produced by the same technique as that for the biotinylated miRNA of 1-1) of Example 1, and a cell extract of HEK293 cells was produced by the same technique as that for the cell extract of 1-2) of Example 1. Five tubes in each of which biotinylated double-stranded miR-183 ([…]) was added to 500 μl of the cell extract were produced, and were each subjected to a reaction at 4° C. for 30 minutes, and then at 30° C. for 60 minutes to provide a solution containing a biotinylated miRNA-target gene mRNA complex. To the solution containing the complex were added streptavidin agarose beads (Streptavidin Mutein Matrix, No. 03 708 152 001: Roche), and each tube was treated at 4° C. for 0 minutes, 2 minutes, 12 minutes, 24 minutes, or 1 hour. […]
The presence or absence of the AGO2 protein in the pull-down complex of Example 2 was confirmed. […] By the same technique as in Experimental Example 1-2, the sample was electrophoresed with 8% SDS-polyacrylamide gel, proteins were then blotted onto a PVDF membrane and subjected to a reaction through the use of an anti-AGO2 antibody (Anti Human AGO2 monoclonal antibody; Wako Pure Chemical Industries, Ltd., No. 016-20861), an anti-mouse antibody, and a Vecstatin ABC-AP kit (Vector Laboratories), and a fluorescence image was acquired with an image analyzer (LAS-1000; FUJIFILM). […]

Row | Substance | E2F2, TUSC2 and SRSF8 in pulled down mRNA [1] | target candidate genes of miR-183 (10 kinds) in pull-down complex [3] | candidate genes whose mRNA was pulled down / RT-PCR bands [3] | E2F6 and SOCS4 in pulled down mRNA [1] | also measured
1 | biotinylated miR-29a: Sense SEQ ID NO: 5, 5′-phosphorylated, 3′-biotinylated; antisense SEQ ID NO: 6; negative control (sense UAGCACCAUCUGAAAUCGGUUA; antisense ACCGAUUUCAGAUGGUGCCAAG; sense: RNA, 5' {P}, 3' {Biotin}, backbone not given here; antisense: RNA, 5' {P}, backbone not given here) | not contained |  |  |  | 
2 | biotinylated miR-19a: Sense SEQ ID NO: 7, 5′-phosphorylated, 3′-biotinylated; antisense SEQ ID NO: 8 (sense UGUGCAAAUCUAUGCAAAACUGA; antisense AGUUUUGCAUAGAUUUGCAUAAG; sense: RNA, 5' {P}, 3' {Biotin}, backbone not given here; antisense: RNA, 5' {P}, backbone not given here) |  |  |  |  | target candidate genes (9 genes) of miR-19a in pulled down mRNA ([2]; JAZF1, TNF, SMAD4, HIP1, HIC1, LRP12, TNFRSF12A, TUSC2, SIVA1, Example 11): contained; target candidate genes (7 kinds) of miR-19a in 5 mM biotin extract or on remaining beads ([2]; SOX4, INHBB, TP531NP1, PTP4A1, TNFAIP3, HIC1, CNKSR2, Example 10): present
3 | natural type miRNA: Original mature miRNA type: sense SEQ ID NO: 1, antisense SEQ ID NO: 9 (sense UAUGGCACUGGUAGAAUUCACU; antisense GUGAAUUACCGAAGGGCCAUAA; sense: RNA, 5' {P}, 3' {Biotin}, backbone not given here; antisense: RNA, 5' {P}, backbone not given here) |  | contained |  |  | 
4 | biotinylated let-7b: Sense SEQ ID NO: 3, 5′-phosphorylated, 3′-biotinylated; antisense SEQ ID NO: 4 | contained |  | no band for any of the genes was detected | contained | 
5 | biotinylated miR-183: Sense SEQ ID NO: 1, 5′-phosphorylated, 3′-biotinylated; antisense SEQ ID NO: 2 with a 1-base mismatch (sense UAUGGCACUGGUAGAAUUCACU; antisense UGAAUUCUACCAGUGCCACAAG; sense: RNA, 5' {P}, 3' {Biotin}, backbone not given here; antisense: RNA, 5' {P}, backbone not given here) |  | contained | 7 | not contained | AGO2 protein (about 95 kDa) in pull-down complex (AGO2 protein): detected
